The test concerns primary colon cancer cells. The test is described as follows: Colon cancer sphere assay, primary colon cancer cells. To be noted: in the presence of IL-22, inhibitor 10 uM. The class given is cell-based, human. As to the method:
(A, B) IL-22 is expressed by immune cells in colon cancer tissues. Different cell populations were sorted from colon cancer tissues and IL-22 expression was measured by real time PCR. (5-10 donors, P<0.05). (C) IL-22 is spontaneously released by different immune cell populations in colon cancer tissues. Different CD45^+ immune subsets (10^6/ml) were sorted from colon cancer and blood, and cultured for 12 hours. IL-22 was detected via ELISA. (n=5, *P<0.05). (D, E) IL-22 is expressed by activated CD4^+ T cells in colon cancer tissues. CD45^+ subsets (10^6/ml) were sorted from colon cancer and blood, and were activated with anti-CD3 and anti-CD28 for 2 days. IL-22 was detected with ELISA (D) or intracellular staining (E). (n=5, *P<0.05). […] IL-22 mRNA was detected by real time PCR (F) and protein by ELISA (G). […] IL-22 expression was quantified with real-time PCR in the migrated and non-migrated cells. Results are expressed as the mean relative expression (H). The phenotype of migrated cells, non-migrated cells and control (before migration) was analyzed by FACS (I). […] The mRNA of stem cell core genes was detected by real-time PCR after 6 hours (K) and ALDH activity was detected by FACS after 48 hours (L). […]
(A) IL-22 induces H3K79me2 in colon cancer cells. […] Total histone modifications were analyzed by western blot. […] Sphere numbers were recorded. […] DOT1L complex gene expression was quantified by real-time PCR. […]

Molecules are shown by their SMILES.

Take `CC(C)N(CCCNC(=O)Nc1ccc(C(C)(C)C)cc1)C[C@H]1O[C@@H](n2ccc3c(N)ncnc32)[C@H](O)[C@@H]1O` [EPZ004777]: the “sphere formation induced by IL-22” value was “suppressed”.
